According to ChEMBL document CHEMBL3997785, “Optimization of 2-Anilino 4-Amino Substituted Quinazolines into Potent Antimalarial Agents with Oral in Vivo Activity” (J Med Chem, 2017):
Calls of active or inactive are those of the source. The calls are words filed in the database; no cut-off is given here.

Tests used:
[1] = Intrinsic clearance in human liver microsomes at 1 uM in presence of NADPH by LC-MS method; assay type: ADME, microsome; conditions: read-out: CLH
[2] = Aqueous solubility of the compound at pH 6.5 by nephelometry; assay type: physicochemical
[3] = test system: Plasmodium falciparum; experiment: Antimalarial activity against Plasmodium falciparum 3D7 asexual blood stage infected in human erythrocytes incubated for 72 hrs by LDH assay; assay type: functional, cell-based; conditions: 3D7, 72 h
[4] = test system: HepG2; experiment: Cytotoxicity against human HepG2 cells assessed as growth inhibition after 48 hrs by Cell Titer-Glo assay; assay type: cell-based; conditions: HepG2, 48 h
[5] = Selectivity index, ratio of EC50 for human HepG2 cells to EC50 for Plasmodium falciparum 3D7 asexual blood stage infected in human erythrocytes; assay type: toxicity, cell-based; conditions: read-out: Ratio EC50
[6] = Aqueous solubility of the compound at pH 2 by nephelometry; assay type: physicochemical
[7] = Half life in human liver microsomes at 1 uM in presence of NADPH by LC-MS method; assay type: ADME, microsome
[8] = Half life in mouse liver microsomes at 1 uM in presence of NADPH by LC-MS method; assay type: ADME, microsome
[9] = Intrinsic clearance in mouse liver microsomes at 1 uM in presence of NADPH by LC-MS method; assay type: ADME, microsome; conditions: read-out: CLH
[10] = test system: Plasmodium falciparum; experiment: Antimalarial activity against chloroquine and mefloquine resistant Plasmodium falciparum W2mef infected in human erythrocytes incubated for 72 hrs by LDH assay; assay type: functional, cell-based
[11] = test system: Plasmodium falciparum; experiment: Antimalarial activity against synchronous culture of Plasmodium falciparum 3D7 infected in human erythrocytes assessed as development arrest at ring stage of asexual life cycle leading to parasite death at 10 times EC50 up to 48 hrs by Giemsa-staining based assay relative to control; assay type: functional, cell-based
[12] = test system: Plasmodium falciparum; experiment: Antimalarial activity against synchronous culture of Plasmodium falciparum 3D7 ring stage parasite infected in human erythrocytes incubated for 3 hrs followed by compound wash out and measured after 24 hrs by NanoGlo-reagent based bioluminescence assay; assay type: functional, cell-based
[13] = test system: Plasmodium falciparum; experiment: Antimalarial activity against synchronous culture of Plasmodium falciparum 3D7 ring stage parasite infected in human erythrocytes incubated for 6 hrs followed by compound wash out and measured after 24 hrs by NanoGlo-reagent based bioluminescence assay; assay type: functional, cell-based
[14] = test system: Plasmodium falciparum; experiment: Antimalarial activity against synchronous culture of Plasmodium falciparum 3D7 ring stage parasite infected in human erythrocytes incubated for 24 hrs followed by compound wash out and measured after 24 hrs by NanoGlo-reagent based bioluminescence assay; assay type: functional, cell-based; conditions: 3D7, 24 h
[15] = test system: Plasmodium falciparum; experiment: Antimalarial activity against Plasmodium falciparum NF54 harboring pfs16-LUC-GFP ring stage gametocytes after 24 hrs by MitoTracker Red staining based confocal microscopy; assay type: functional; conditions: NF54, 24 h
[16] = test system: Plasmodium falciparum; experiment: Antimalarial activity against Plasmodium falciparum NF54 harboring pfs16-LUC-GFP early stage 1 to 3 gametocytes after 48 hrs by MitoTracker Red staining based confocal microscopy; assay type: functional; conditions: NF54, 48 h
[17] = test system: Plasmodium falciparum; experiment: Antimalarial activity against Plasmodium falciparum NF54 harboring pfs16-LUC-GFP late stage 4 to 5 gametocytes after 48 hrs by MitoTracker Red staining based confocal microscopy; assay type: functional; conditions: NF54, 48 h
[18] = test system: Plasmodium berghei; experiment: Antimalarial activity against Plasmodium berghei ANKA infected Swiss black mouse model at 20 mg/kg administered via oral gavage for 4 days starting 4 hrs post infection by microscopic method; assay type: functional
[19] = test system: Plasmodium berghei; experiment: Antimalarial activity against Plasmodium berghei ANKA infected Swiss black mouse at 20 mg/kg, ip administered for 4 days starting 4 hrs post infection by microscopic method; assay type: functional
[20] = test system: Plasma; experiment: Drug uptake in Plasmodium berghei ANKA infected Swiss black mouse plasma at 20 mg/kg, ip measured after 20 hrs; assay type: ADME, organism-based; conditions: in vivo
[21] = test system: Plasmodium falciparum; experiment: Antimalarial activity against Plasmodium falciparum 3D7 infected in human erythrocytes assessed as arrest at trophozoite stage of asexual life cycle leading to parasite death at 10 times EC50 up to 48 hrs by Giemsa-staining based assay relative to control; assay type: functional, cell-based
[22] = Hepatic extraction ratio in human liver microsomes at 1 uM in presence of NADPH by LC-MS method; assay type: ADME, microsome; conditions: read-out: ERH
[23] = Hepatic extraction ratio in mouse liver microsomes at 1 uM in presence of NADPH by LC-MS method; assay type: ADME, microsome; conditions: read-out: ERH
[24] = test system: Liver; experiment: Drug metabolism in human liver microsomes assessed as N-demethylation of methyl piperidine or piperazine at 1 uM after 60 mins in presence of NADPH by LC-MS method; assay type: ADME, microsome; conditions: 1 h
[25] = test system: Liver; experiment: Drug metabolism in mouse liver microsomes assessed as N-demethylation of methyl piperidine or piperazine at 1 uM after 60 mins in presence of NADPH by LC-MS method; assay type: ADME, microsome; conditions: 1 h
[26] = test system: Liver; experiment: Drug metabolism in human liver microsomes assessed as mono-oxygenation at 6th position of quinazoline at 1 uM after 60 mins in presence of NADPH by LC-MS method; assay type: ADME, microsome; conditions: 1 h
[27] = test system: Liver; experiment: Drug metabolism in mouse liver microsomes assessed as mono-oxygenation at 6th position of quinazoline at 1 uM after 60 mins in presence of NADPH by LC-MS method; assay type: ADME, microsome; conditions: 1 h
[28] = test system: Liver; experiment: Drug metabolism in human liver microsomes assessed as hydro defluorination at 1 uM after 60 mins in presence of NADPH by LC-MS method; assay type: ADME, microsome; conditions: 1 h
[29] = test system: Liver; experiment: Drug metabolism in mouse liver microsomes assessed as hydro defluorination at 1 uM after 60 mins in presence of NADPH by LC-MS method; assay type: ADME, microsome; conditions: 1 h
[30] = Ratio of EC50 for Plasmodium falciparum NF54-pfs16-LUC-GFP ring stage gametocytes to EC50 for Plasmodium falciparum 3D7 asexual blood stage infected in human erythrocytes; assay type: functional
[31] = Ratio of EC50 for Plasmodium falciparum NF54-pfs16-LUC-GFP early stage gametocytes to EC50 for Plasmodium falciparum 3D7 asexual blood stage infected in human erythrocytes; assay type: functional
[32] = test system: Plasma; experiment: Drug uptake in Plasmodium berghei ANKA infected Swiss black mouse plasma at 20 mg/kg, po via gavage measured after 20 hrs; assay type: ADME, organism-based; conditions: in vivo

## CN1CCN(CCNc2nc(Nc3ccc(F)c(Cl)c3)nc3ccccc23)CC1.Cl.Cl
[1]
  microsomal CLint at 1 µM: < 7 µL/min/mg
[2]
  solubility kinetic: 11.3 to 23 µM
[3]
  EC50: 26 nM
[4]
  EC50: 6100 nM
[5]
  selectivity ratio: 240
[6]
  solubility kinetic: > 90 µM
[7]
  half-life at 1 µM: > 255 min
[8]
  half-life at 1 µM: 30 min
[9]
  microsomal CLint at 1 µM: 57 µL/min/mg
[10]
  EC50: 49 nM
[11]
  Activity: Active
[12]
  EC50: 2500 nM
[13]
  Activity: Dose dependent effect
  EC50: 2960 nM
[14]
  EC50: 323 nM
[15]
  EC50: 179 nM
[16]
  EC50: 326 nM
[17]
  EC50: 3000 nM
[18]
  Activity: >90%
[19]
  Activity: >98%
[20]
  Drug uptake: Active
[21]
  Activity: inactive
[22]
  hepatic extraction ratio at 1 µM: < 0.22
[23]
  hepatic extraction ratio at 1 µM: 0.55
[24]
  Drug metabolism: Metabolite_Detected
[25]
  Drug metabolism: Metabolite_Detected
[26]
  Drug metabolism: Metabolite_Detected
[27]
  Drug metabolism: Metabolite_Detected
[28]
  Drug metabolism: Metabolite_Detected
[29]
  Drug metabolism: Metabolite_Detected
[30]
  Ratio EC50: 10
[31]
  Ratio EC50: 15 - 25
[32]
  Drug uptake: Active
